Broadly, the EC50 is the concentration needed to bring the measured effect to its halfway point. Higher therefore signals weaker potency.

The test system of the first assay is HIV (HTLV-III B strain). As to the kind of experiment: HIV replication inhibition assay (MTT, MT-4 cells). Format: cell-based. Particulars: Human immunodeficiency virus 1, MT4, 96 h, Table A-3, four days. On the procedure: HIV (HTLV-III B strain) persistent infected human T cell strain Molt-4 clone 8 was cultured in 10% Fetal Bovine Serum-containing RPMI-1640 medium and the supernatant was filtrated, then the virus titer was measured and the solution was stored at −80° C. Each anti-human immunodeficiency virus active substance was diluted with the above cultured medium to the designated concentration, which was dispensed into 96 well micro plate by 50 μL. Next, a MT-4 cell suspended liquid was dispensed by 100 μL (2.5×10^4 cells), then the above HIV-containing supernatant diluted with the above cultured medium was added thereto by 50 μL (60 pfu (plaque forming unit)).
The obtained mixture was cultured at 37° C. in CO2 incubator for four days, then 3-(4,5-dimehylthiazole-2-yl)-2,5-diphenyltetrazolynium bromide (MTT) 5 mg/mL in PBS was added to each well by 30 μL, followed by 1 hr-cultivation. In this step, as formazan was precipitated by reduction of MTT in living cells, the cell supernatant was removed from all well by 150 μL, then a 150 μL of solution (10% Triton X-100 and […]) was added thereto, followed by shaking with a plate mixer, to elute formazan. The formazan was measured with a microreader at OD: 560 nm and 690 nm (wavelength) and the result was compared with the reference. EC50 means the compound concentration at which cell cytotoxicity by virus is inhibited 50%.
`Cc1ccc(-c2c(C)c3c(c(C)c2[C@H](OC(C)(C)C)C(=O)O)NC(=O)C2(CCC(F)(F)CC2)N3)cc1` [Compound 157] had an EC50 of 4.3 nM.

Regarding `Cc1ccc(-c2c(C)c3c(c(C)c2[C@H](OC(C)(C)C)C(=O)O)N(S(C)(=O)=O)Cc2cc(C(F)(F)F)ccc2-3)cc1` [Compound 159], the EC50 amounted to 5.3 nM.

For `Cc1ccc(-c2c(C)c3c(c(C)c2[C@H](OC(C)(C)C)C(=O)O)N(S(C)(=O)=O)Cc2ccc(F)cc2-3)cc1` [Compound 161], it took 21 nM to reach a half-maximal effect (EC50).

`COc1cc(C)c2c(c1)CN(S(C)(=O)=O)c1c(C)c([C@H](OC(C)(C)C)C(=O)O)c(-c3ccc(C)cc3)c(C)c1-2` [Compound 162] yielded an EC50 of 13 nM.

As for `Cc1ccc(-c2c(C)c3c(c(C)c2[C@H](OC(C)(C)C)C(=O)O)N(S(C)(=O)=O)Cc2c(F)cccc2-3)cc1` [Compound 163], a half-maximal effect (EC50) was put at 15 nM.

The molecule `Cc1ccc(-c2c(C)c3c(c(C)c2[C@H](OC(C)(C)C)C(=O)O)N(S(C)(=O)=O)Cc2cc(OC(F)(F)F)ccc2-3)cc1` [Compound 164] gave an EC50 of 4.1 nM.

Consider `Cc1ccc(-c2c(C)c3c(c(C)c2[C@H](OC(C)(C)C)C(=O)O)N(S(C)(=O)=O)Cc2cc4c(cc2-3)COC4)cc1` [Compound 166], for which the response was half-maximal at 1.7 nM (EC50).

`Cc1ccc(-c2c(C)c3c(c(C)c2[C@H](OC(C)(C)C)C(=O)O)N(S(C)(=O)=O)Cc2cc(F)ccc2-3)cc1` [Compound 167] gave an EC50 of 8.5 nM.

`COc1ccc2c(c1)-c1c(C)c(-c3ccc(C)cc3)c([C@H](OC(C)(C)C)C(=O)O)c(C)c1N(S(C)(=O)=O)C2` [Compound 168] showed an EC50 of 24 nM.

Turning to `Cc1ccc(-c2c(C)c3c(c(C)c2[C@H](OC(C)(C)C)C(=O)O)N(S(C)(=O)=O)Cc2cccc(C(F)(F)F)c2-3)cc1` [Compound 169], the EC50 was 9.6 nM.

As for `Cc1ccc(-c2c(C)c3c(c(C)c2[C@H](OC(C)(C)C)C(=O)O)NS(=O)(=O)N(c2ccc(F)cc2)CC3)cc1` [Compound 171], it took 21 nM to reach a half-maximal effect (EC50).

`Cc1ccc(-c2c(C)c3c(c(C)c2[C@H](OC(C)(C)C)C(=O)O)N(S(C)(=O)=O)Cc2c(F)ccc(C)c2-3)cc1` [Compound 172] showed an EC50 of 42 nM.

As for `Cc1ccc(-c2c(C)c3c(c(C)c2[C@H](OC(C)(C)C)C(=O)O)N(S(C)(=O)=O)Cc2c-3cccc2C(F)(F)F)cc1` [Compound 173], the EC50 worked out at 9.4 nM.

As for `COc1ccc2c(c1F)CN(S(C)(=O)=O)c1c(C)c([C@H](OC(C)(C)C)C(=O)O)c(-c3ccc(C)cc3)c(C)c1-2` [Compound 174], the EC50 worked out at 1.5 nM.

Regarding `Cc1ccc(-c2c(C)c3c(c(C)c2[C@H](OC(C)(C)C)C(=O)O)N(S(C)(=O)=O)Cc2cc4c(cc2-3)OCCCO4)cc1` [Compound 175], the concentration for a half-maximal effect (EC50) stood at 2.9 nM.

Molecule `Cc1ccc(-c2c(C)c3c(c(C)c2[C@H](OC(C)(C)C)C(=O)O)NC(=O)N(Cc2ccc(F)cc2)CC3)cc1` [Compound 177] returned an EC50 of 34 nM.

Consider `Cc1ccc(-c2c(C)c3c(c(C)c2[C@H](OC(C)(C)C)C(=O)O)N(S(C)(=O)=O)Cc2cscc2-3)cc1` [Compound 183], for which a half-maximal response (EC50) required 21 nM.

Regarding `Cc1ccc(-c2c(C)c3c4c(c2C(OC(C)(C)C)C(=O)O)CCCN4S(=O)(=O)N(Cc2ccc(F)cc2)C3)cc1` (stereo not shown) [Compound 184], the EC50 came out at 53 nM.

Still in this assay, the particulars now being: Human immunodeficiency virus 1, MT4, 96 h, Table A-4, four days.
`Cc1ccc(-c2c(C)c3c(c(C)c2[C@H](OC(C)(C)C)C(=O)O)N(S(C)(=O)=O)Cc2c(C)cccc2-3)cc1` [Compound 208] returned an EC50 of 15 nM.

Take `Cc1ccc(-c2c(C)c3c(c(C)c2[C@H](OC(C)(C)C)C(=O)O)N(S(C)(=O)=O)Cc2ccncc2-3)cc1` [Compound 210]: the midpoint of the response, the EC50, lay at 38 nM.

`Cc1ccc(-c2c(C)c3c(c(C)c2[C@H](OC(C)(C)C)C(=O)O)N(S(C)(=O)=O)Cc2cc(F)cc(F)c2-3)cc1` [Compound 212] showed an EC50 of 1.9 nM.

In turn, `COc1cc2c(cn1)-c1c(C)c(-c3ccc(C)cc3)c([C@H](OC(C)(C)C)C(=O)O)c(C)c1N(S(C)(=O)=O)C2` [Compound 214] returned an EC50 of 4.9 nM.

Molecule `Cc1ccc(-c2c([C@H](OC(C)(C)C)C(=O)O)c(C)c3nc(O)c4ccc(C(F)(F)F)nc4c3c2C)cc1` [Compound 216] yielded an EC50 of 46 nM.

`Cc1ccc(-c2c([C@H](OC(C)(C)C)C(=O)O)c(C)c3nc(O)c4ccc(C)nc4c3c2C)cc1` [Compound 217] displayed an EC50 of 41 nM.

`Cc1c(-c2c([C@H](OC(C)(C)C)C(=O)O)c(C)c3nc(O)c4cc(F)cnc4c3c2C)ccc2c1CCCO2` [Compound 218] showed an EC50 of 6.4 nM.

Molecule `Cc1ccc(-c2c(C)c3c(c(C)c2[C@H](OC(C)(C)C)C(=O)O)N(S(C)(=O)=O)Cc2ccc(F)c(F)c2-3)cc1` [Compound 220] displayed an EC50 of 7.3 nM.

`Cc1ccc(-c2c([C@H](OC(C)(C)C)C(=O)O)c(C)c3nc(O)c4c(c3c2C)CCCN4)cc1` [Compound 221]: the EC50 was 90 nM.

For the molecule `COc1ccc2c(c1)c(O)nc1c(C)c([C@H](OC(C)(C)C)C(=O)O)c(-c3ccc(C)cc3)c(C)c12` [Compound 223], a half-maximal effect (EC50) was put at 34 nM.

Consider `Cc1c(-c2c(C)c3c(c(C)c2[C@H](OC(C)(C)C)C(=O)O)N(S(C)(=O)=O)Cc2cccc(F)c2-3)ccc2c1CCCO2` [Compound 224], for which the response was half-maximal at 2.5 nM (EC50).

`COc1ccc2c(O)nc3c(C)c([C@H](OC(C)(C)C)C(=O)O)c(-c4ccc(C)cc4)c(C)c3c2c1` [Compound 226] displayed an EC50 of 58 nM.

Turning to `Cc1ccc(-c2c(C)c3c(c(C)c2[C@H](OC(C)(C)C)C(=O)O)N(S(C)(=O)=O)Cc2c(F)cc(F)cc2-3)cc1` [Compound 228], the EC50 was 19 nM.

In turn, `Cc1ccc(-c2c([C@H](OC(C)(C)C)C(=O)O)c(C)c3nc(O)c4ccc(F)cc4c3c2C)cc1` [Compound 230] showed a concentration for a half-maximal effect (EC50) of 94 nM.

In turn, `Cc1ccc(-c2c([C@H](OC(C)(C)C)C(=O)O)c(C)c3nc(O)c4cc(F)c(F)cc4c3c2C)cc1` [Compound 231] gave an EC50 of 78 nM.

On to `Cc1ccc(-c2c([C@H](OC(C)(C)C)C(=O)O)c(C)c3nc(O)c4cc5c(cc4c3c2C)OCCO5)cc1` [Compound 232], for which the response was half-maximal at 12 nM (EC50).

`Cc1ccc(-c2c([C@H](OC(C)(C)C)C(=O)O)c(C)c3nc(O)c4cc5ccccc5nc4c3c2C)cc1` [Compound 233] gave an EC50 of 38 nM.

`Cc1c(-c2c(C)c3c(c(C)c2[C@H](OC(C)(C)C)C(=O)O)N(S(C)(=O)=O)Cc2cccc(F)c2-3)ccc2c1NCCO2` [Compound 235] had a 50% effective concentration (EC50) of 5.4 nM.

Turning to `Cc1c(-c2c([C@H](OC(C)(C)C)C(=O)O)c(C)c3nc(O)c4cc(F)cnc4c3c2C)ccc2c1NCCO2` [Compound 237], the EC50 was found to be 12 nM.

As for `Cc1c([C@H](OC(C)(C)C)C(=O)O)c(-c2ccc(Cl)cc2)c(C)c2c1nc(O)c1cc(F)cnc12` [Compound 238], the EC50 is 31 nM.

`Cc1ccc(-c2c([C@H](OC(C)(C)C)C(=O)O)c(C)c3ncc4cc(F)cnc4c3c2C)cc1` [Compound 239] registered an EC50 of 81 nM.

In turn, `Cc1ccc(-c2c([C@H](OC(C)(C)C)C(=O)O)c(C)c3nc(N)c4cc(F)cnc4c3c2C)cc1` [Compound 245] came in with an EC50 of 15 nM.

Consider `Cc1c(-c2c(C)c3c(c(C)c2[C@H](OC(C)(C)C)C(=O)O)N(S(C)(=O)=O)Cc2c(F)ccc(F)c2-3)ccc2c1CCCO2` [Compound 246], for which the 50% effective concentration (EC50) stood at 2.3 nM.

The same assay, now with this note: Human immunodeficiency virus 1, MT4, 96 h, Table A-5, four days.
For `Cc1ccc(-c2c(C)c3c(c(C)c2[C@H](OC(C)(C)C)C(=O)O)N(S(C)(=O)=O)Cc2nc(C)ccc2-3)cc1` [Compound 248], a half-maximal effect (EC50) was put at 11 nM.

On to `Cc1c(-c2c(C)c3c(c(C)c2[C@H](OC(C)(C)C)C(=O)O)N(S(C)(=O)=O)Cc2c(F)ccc(F)c2-3)ccc2c1NCCO2` [Compound 249], for which the EC50 worked out at 5.8 nM.

Molecule `Cc1ccc2c(c1F)CN(S(C)(=O)=O)c1c(C)c([C@H](OC(C)(C)C)C(=O)O)c(-c3ccc4c(c3C)CCCO4)c(C)c1-2` [Compound 251] had a half-maximal effective concentration (EC50) of 2.1 nM.

For the molecule `Cc1ccc2c(c1F)CN(S(C)(=O)=O)c1c(C)c([C@H](OC(C)(C)C)C(=O)O)c(-c3ccc4c(c3C)NCCO4)c(C)c1-2` [Compound 254], the EC50 was 3.1 nM.

`Cc1c(C2=CCC(C)(C)CC2)c([C@H](OC(C)(C)C)C(=O)O)c(C)c2c1-c1c(F)cccc1CN2S(C)(=O)=O` [Compound 258] returned a half-maximal effective concentration (EC50) of 3.9 nM.

Turning to `Cc1c(-c2ccc3c(c2)C(F)(F)CCO3)c([C@H](OC(C)(C)C)C(=O)O)c(C)c2c1-c1c(F)cccc1CN2S(C)(=O)=O` [Compound 259], the EC50 came out at 27 nM.

With `Cc1c(-c2ccc3c(c2)NCCO3)c([C@H](OC(C)(C)C)C(=O)O)c(C)c2c1-c1c(F)cccc1CN2S(C)(=O)=O` [Compound 260], the EC50 is 14 nM.

Molecule `Cc1c(-c2ccc3c4c(ccnc24)CCO3)c([C@H](OC(C)(C)C)C(=O)O)c(C)c2c1-c1c(F)cccc1CN2S(C)(=O)=O` [Compound 262] gave an EC50 of 25 nM.

The molecule `COc1ccc(-c2c(C)c3c(c(C)c2[C@H](OC(C)(C)C)C(=O)O)N(S(C)(=O)=O)Cc2cccc(F)c2-3)cc1` [Compound 263] displayed an EC50 of 12 nM.

Molecule `Cc1c(-c2ccc(F)cc2)c([C@H](OC(C)(C)C)C(=O)O)c(C)c2c1-c1c(F)cccc1CN2S(C)(=O)=O` [Compound 264] displayed an EC50 of 19 nM.

`Cc1c(-c2ccc(Cl)cc2)c([C@H](OC(C)(C)C)C(=O)O)c(C)c2c1-c1c(F)cccc1CN2S(C)(=O)=O` [Compound 265]: the midpoint of the response, the EC50, lay at 11 nM.

For the origin of these results see US20180362543A1, “HIV REPLICATION INHIBITOR” (Shionogi & Co., Ltd., priority 2013, published 2018).
